Where two headings read alike, the source gives them in different places.
Assays:
[1] = target: T1, ABL1 (64-515) (Homo sapiens (Human), UniProt P00519); experiment: Radio ABL1 (64-515) assay (radiometric filter-binding); assay type: biochemical
Method: For determination of ABL kinase activity, the radiometric filter-binding assay was used. […] Pre-incubation of enzyme with compounds (when stated) was performed by exposing the enzyme to compounds prior to addition of the substrate mixture (ATP and/or peptide substrate). […] Millipore, Volketswil, Switzerland) prepared according to the manufacturer's instructions. Filter-plates were washed 3× with 0.5% H3PO4, followed by addition of 30 μL scintillation cocktail (Microscint, Perkin Elmer) per well and then analysed in a TopCount NXT scintillation counter (Perkin Elmer). Results were expressed as IC50 values.

[2] = tested on: Ba/F3-BCR-ABL1-WT cells; experiment: Ba/F3-BCR-ABL1-WT cellular proliferation assay; assay type: cell-based, murine; conditions: Mus musculus, read-out: Ba/F3-BCR-ABL1-WT IC50
Method: To generate Ba/F3 cells that depend on BCR-ABL1 expression for growth and survival, Ba/F3 cells were engineered to express BCR-ABL1 using retroviral transduction with a MSCV based retroviral vector containing a p210 BCR-ABL1expression cassette. […] These cells are referred to as Ba/F3-BCR-ABL1-WT.
Cells were incubated at 37° C. in a humidified environment with 5% carbon dioxide for 48 hours. Britelite plus solution (Perkin Elmer) was prepared according to the manufacturer's instructions and 25 μL added to each well of the assay plate. […] The degree of luminescence correlates with the number of cells in each well. The effect of each inhibitor concentration can therefore be calculated and IC50 values generated.

[3] = tested on: Ba/F3-BCR-ABL1-T315I cells; experiment: Ba/F3-BCR-ABL1-T315I cellular proliferation assay; assay type: cell-based, murine; conditions: Mus musculus, read-out: Ba/F3-BCR-ABL1-T315I IC50
From the text: The murine bone marrow-derived cell line Ba/F3 was used to generate the appropriate cell line models. Ba/F3 cells were obtained from the German Collection of Microorganisms and Cell Cultures (DSMZ, Braunschweig and DSMZ No. ACC 300). […] These cells are referred to as Ba/F3-WT.
To generate Ba/F3 cells that depend on BCR-ABL1 expression for growth and survival, Ba/F3 cells were engineered to express BCR-ABL1 using retroviral transduction with a MSCV based retroviral vector containing a p210 BCR-ABL1expression cassette. When grown in the absence of IL-3, the proliferation of the cells is dependent on the expression of BCR-ABL1. (Daley, G. Q. and Baltimore, D. Transformation of an interleukin 3-dependent hematopoietic cell line by the chronic myeloid leukemia-specific p210 BCR-ABL1 protein. PNAS 1988; 85:9312-9316). These cells are referred to as Ba/F3-BCR-ABL1-WT. A similar approach was used to generate Ba/F3 cells that depend on a BCR-ABL1 variant in which threonine 315 is replaced with isoleucine. These cells are referred to as Ba/F3-BCR-ABL1-T3151.
Ba/F3-WT cells were maintained in RPMI1640 media with L-glutamine, HEPES (Lonza), 10% FBS (Gibco) and 5 ng/ml IL-3 (Calbiochem). Ba/F3-BCR-ABL1-WT cells and Ba/F3-BCR-ABL1-T3151 cells were maintained in RPMI1640 media with L-glutamine, HEPES (Lonza) and 10% FBS (Gibco).
For each cell line, the cell density was adjusted to 50 000 cells/mL and 50 μL (2500 cells) added per well of a 384-well assay plate.
Test compounds were resuspended in DMSO at a concentration of 10 mM. A serial three-fold dilution of each compound with DMSO was performed in 384-well plates using the Janus Liquid Dispenser (PerkinElmer). Compound was delivered to the assay plates containing 2500 cells in a 50 μL volume via Acoustic delivery from an ATS-100 (EDC). For Ba/F3-BCR-ABL1-WT cell assays, […] of each compound dilution was transferred to the assay plate for final assay concentrations of 0.4 μM, 0.13 μM, 0.044 μM, 0.015 μM, 0.005 μM, 0.001 μM, 0.00033 μM, 0.00011 μM, 0.000037 μM, 0.000012 μM. For Ba/F3-WT and Ba/F3-BCR-ABL1-T315I cell assays, […] of each compound dilution was transferred to the assay plate for final assay concentrations of 10 μM, 3.33 μM, 1.11 μM, 0.37 μM, 0.12 μM, 0.041 μM, 0.014 μM, 0.0046 μM, 0.0015 μM, 0.00051 μM.
Cells were incubated at 37° C. in a humidified environment with 5% carbon dioxide for 48 hours. Britelite plus solution (Perkin Elmer) was prepared according to the manufacturer's instructions and 25 μL added to each well of the assay plate. Plates were incubated for 3-5 minutes and the luminescence detected on an EnVision Multimode plate reader (Perkin Elmer). The degree of luminescence correlates with the number of cells in each well. The effect of each inhibitor concentration can therefore be calculated and IC50 values generated.

[4] = Compound concentration in mouse brain and plasma; assay type: in vivo; conditions: 5 minutes after a single intravenous injection of 1 mg/kg in mice; for Kp at 5 min / concentration at 5 min: mouse; for Kp at 5 min: brain/plasma, read-out: Mean Ratio (brain/plasma); for concentration at 5 min: plasma, read-out: Mean blood (drug concentration in plasma)
Method: Approximately two parts volume of MeOH/water (2/8 v/v) were added to the preweighted brain samples (˜250 mg) and subsequently homogenized using Covaris™ instrument. A 50 μL aliquot was subjected to protein precipitation and analysis as described below.
Fifty μL aliquots of blood or brain homogenate from animals treated with c-ABL inhibitors were first spiked with 5 μL of the internal standard (N-(4-methyl-3-((4-(6-methylpyridin-3-yl)pyrimidin-2-yl)amino)phenyl)-4-((4-methylpiperazin-1-yl)methyl)benzamide for positive ion mode 5-chloro-N-(4-(N-(cyclohexylcarbamoyl)sulfamoyl)-phenethyl)-2-methoxybenzamide for negative ion mode, respectively), subsequently deproteinated by adding MeCN (200 μL), centrifuged, the supernatant evaporated to dryness, and re-dissolved in 100 μL of a MeOH/water (1/1 v/v). Five μL were subjected to HPLC-MS/MS analysis. Chromatographic separation from interfering endogenous and exogenous contaminants was achieved on an Phenomenex™ Polar RP reversed-phase HPLC column (particle size: 2.5 μm; column dimensions: 2×50 mm) using a linear gradient of 100% water containing 1% formic acid (A), and MeOH supplemented with 1% formic acid (B), which was run over 6.0 min from 5% to 90% B, then kept at 100% B for 1.0 min, and a subsequent 1.5 min postrun with re-equilibration of the column. The column was kept at 50° C. The flow of 350 μL/min from the HPLC system (Flux Rheos Allegro LC pump and CTC Pal autosampler) was directly introduced into the ion source of an Finnigan™ Quantum Ultra MS-detector (triple stage quadrupole mass analyzer) and subjected to heated electrospray ionization (HESI).
c-ABL inhibitors were specifically detected using multiple reaction monitoring from their quasi-molecular parent ion ([M+H]^+ or [M−H]^−) to specific daughter ions as given in the table below. Quantification of blood and brain levels of c-ABL inhibitors compounds were based on a 6-level calibration curve made in triplicate.

[5] = target: T1, ABL1 (64-515); experiment: Caliper ABL1 (64-515) assay (microfluidic mobility shift); assay type: biochemical
Method: All assays were performed in 384-well microtiter plates. Each assay plate contained 8-point serial dilutions for 40 test compounds, as well as four 8-point serial dilutions of staurosporine as a reference compound, plus 16 high and 16 low controls. Liquid handling and incubation steps were done on a Thermo CatX workstation equipped with Innovadyne Nanodrop Express. Between pipetting steps, tips were cleaned in wash cycles using wash buffer.
The assay plates were prepared by addition of 50 nL per well of compound solution in 90% DMSO. […] Plates with terminated kinase reactions were transferred to the Caliper LC3000 workstations for reading. Phosphorylated and unphosphorylated peptides were separated using the Caliper microfluidic mobility shift technology. Briefly, samples from terminated kinase reactions were applied to the chip. Analytes are transported through the chip by constant buffer flow and the migration of the substrate peptide is monitored by the fluorescence signal of its label. Phosphorylated peptide (product) and unphosphorylated peptide (substrate) are separated in an electric field by their charge/mass ratio. Kinase activities were calculated from the amounts of formed phospho-peptide. IC50 values were determined from percent inhibition values at different compound concentrations by non-linear regression analysis.
Test compounds were dissolved in DMSO (10 mM) and transferred into 1.4 mL flat bottom or V-shaped Matrix tubes carrying a unique 2D matrix. The stock solutions were stored at +2° C. if not used immediately. For the test procedure the vials were defrosted and identified by a scanner whereby a working sheet was generated that guided the subsequent working steps.
Compound dilutions were made in 96-well plates. This format enabled the assay of maximally 40 individual test compounds at 8 concentrations (single points) including 4 reference compounds. The dilution protocol included the production of “pre-dilution plates”, “master plates” and “assay plates”.
Polypropylene 96-well plates were used as pre-dilution plates. […] All dilution steps were done on a HamiltonSTAR robot.
These plates were used directly for the assay which was performed in a total volume of 9.05 μL.

T1 sequence (P00519 64-515): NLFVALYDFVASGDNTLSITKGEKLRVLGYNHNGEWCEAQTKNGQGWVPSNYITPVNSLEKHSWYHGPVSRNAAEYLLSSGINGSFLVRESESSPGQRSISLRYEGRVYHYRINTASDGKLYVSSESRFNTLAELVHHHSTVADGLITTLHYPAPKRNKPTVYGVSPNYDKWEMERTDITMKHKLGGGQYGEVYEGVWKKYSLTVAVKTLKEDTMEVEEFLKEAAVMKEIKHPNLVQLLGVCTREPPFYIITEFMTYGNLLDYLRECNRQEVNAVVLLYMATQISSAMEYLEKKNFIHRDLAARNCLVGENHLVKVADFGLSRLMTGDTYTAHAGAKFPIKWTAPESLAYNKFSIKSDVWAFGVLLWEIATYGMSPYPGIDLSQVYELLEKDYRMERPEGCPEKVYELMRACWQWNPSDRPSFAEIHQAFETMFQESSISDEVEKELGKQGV

| Compound | IC50 [1] [nM] | IC50 ([2]; 48 hours) [nM] | IC50 ([3]; 48 hours) [nM] | IC50 [5] [nM] | also measured |
| --- | --- | --- | --- | --- | --- |
| O=C(Nc1ccc(OC(F)(F)Cl)cc1)c1cccc(-c2cncnc2)c1 [Example 10, N-(4-(Chlorodifluoromethoxy)phenyl)-3-(pyrimidin-5-yl)benzamide] | 9.5 | 2.1 | 400 |  | Mean brain (drug concentration in brain) [4]: 4093 pmol/g; Kp at 5 min [4]: 3.24; concentration at 5 min [4]: 1260 nM |
| O=C(Nc1ccc(SC(F)(F)F)cc1)c1cccc(-c2cncnc2)c1 [Example 11, 3-(Pyrimidin-5-yl)-N-(4-((trifluoromethyl)thio)phenyl)benzamide] | < 3 | 3.9 | 563 |  | Mean brain (drug concentration in brain) [4]: 7341 pmol/g; Kp at 5 min [4]: 4.99; concentration at 5 min [4]: 1470 nM |
| Cc1ccc(C(=O)Nc2ccc(OC(F)(F)F)cc2)cc1-n1ccnc1 [Example 16, 3-(1H-Imidazol-1-yl)-4-methyl-N-(4-(trifluoromethoxy)phenyl)benzamide] | 4 | 1.2 | 617 |  |  |
| Cc1ccc(C(=O)Nc2ccc(OC(F)(F)F)cc2)cc1-c1cncs1 [Example 17, 4-Methyl-3-(thiazol-5-yl)-N-(4-(trifluoromethoxy)phenyl)benzamide] | 3 | 27 |  |  | Mean brain (drug concentration in brain) [4]: 6985 pmol/g; Kp at 5 min [4]: 2.3; concentration at 5 min [4]: 3030 nM |
| COc1ccc(C(=O)Nc2ccc(OC(F)(F)F)cc2)cc1-c1cncnc1 [Example 30, 4-methoxy-3-(pyrimidin-5-yl)-N-(4-(trifluoromethoxy)phenyl)benzamide] |  |  |  |  | IC50 ([2]; 48 h): 4.1 nM; IC50 ([3]; 48 h): 849 nM; Mean brain (drug concentration in brain) [4]: 4471 pmol/g; concentration at 5 min [4]: 5390 nM |
| O=C(Nc1ccc(OC(F)(F)F)cc1)c1ccc(OCCN2CCOCC2)c(-c2cncnc2)c1 [Example 37, 4-(2-Morpholinoethoxy)-3-(pyrimidin-5-yl)-N-(4-(trifluoromethoxy)phenyl)benzamide] | 3.6 |  | 521 |  |  |
| Cc1ncc(C(=O)Nc2ccc(OC(F)(F)F)cc2)cc1-c1cncnc1 [Example 43, 6-Methyl-5-(pyrimidin-5-yl)-N-(4-(trifluoromethoxy)phenyl)nicotinamide] | 3 | 10 |  | 2.3 |  |
| O=C(Nc1ccc(OC(F)(F)F)cc1)c1cnc(C2=CCOCC2)c(-c2cncnc2)c1 [Example 44, 6-(3,6-Dihydro-2h-pyran-4-yl)-5-(pyrimidin-5-yl)-N-(4-(trifluoromethoxy)phenyl)nicotinamide] | 6 |  | 214 |  |  |
| O=C(Nc1ccc(OC(F)(F)F)cc1)c1cnc(C2CCOCC2)c(-c2cncnc2)c1 [Example 45, 5-(Pyrimidin-5-yl)-6-(tetrahydro-2h-pyran-4-yl)-N-(4-(trifluoromethoxy)phenyl)nicotinamide] |  |  | 460 |  |  |
| N#CC1(c2ncc(C(=O)Nc3ccc(OC(F)(F)F)cc3)cc2-c2cncnc2)CCOCC1 [Example 46, 6-(4-Cyanotetrahydro-2h-pyran-4-yl)-5-(pyrimidin-5-yl)-N-(4-(trifluoromethoxy)phenyl)nicotinamide] |  |  |  | 6.6 |  |
| CC(C)(C#N)c1ncc(C(=O)Nc2ccc(OC(F)(F)F)cc2)cc1-c1cncnc1 [Example 47, 6-(2-Cyanopropan-2-yl)-5-(pyrimidin-5-yl)-N-(4-(trifluoromethoxy)phenyl)nicotinamide] |  |  | 736 |  |  |
| COCCOc1ncc(C(=O)Nc2ccc(OC(F)(F)F)cc2)cc1-c1cncnc1 [Example 51, 6-(2-Methoxyethoxy)-5-(pyrimidin-5-yl)-N-(4-(trifluoromethoxy)phenyl)nicotinamide] | 63 |  |  | 51 |  |
| O=C(Nc1ccc(OC(F)(F)F)cc1)c1cnc(OCCO)c(-c2cncnc2)c1 [Example 52, 6-(2-hydroxyethoxy)-5-(pyrimidin-5-yl)-N-(4-(trifluoromethoxy)phenyl)nicotinamide] | 23 |  | 499 | 23 |  |
| O=C(Nc1ccc(OC(F)(F)F)cc1)c1cnc(OC2CCOCC2)c(-c2cncnc2)c1 [Example 53, 5-(Pyrimidin-5-yl)-6-((tetrahydro-2h-pyran-4-yl)oxy)-N-(4-(trifluoromethoxy)phenyl)nicotinamide] | 8.9 |  |  | 22 |  |
| O=C(Nc1ccc(OC(F)(F)F)cc1)c1cnc(Cl)c(-c2cncnc2)c1 [Example 56, 6-Chloro-5-(pyrimidin-5-yl)-N-(4-(trifluoromethoxy)phenyl)nicotinamide] | 10 |  | 488 | 9.9 |  |
| O=C(Nc1ccc(OC(F)(F)F)cc1)c1cnc(C(F)(F)F)c(-c2cncnc2)c1 [Example 57, 5-(Pyrimidin-5-yl)-N-(4-(trifluoromethoxy)phenyl)-6-(trifluoromethyl)nicotinamide] | 22 |  | 703 |  |  |
| O=C(Nc1ccc(OC(F)(F)F)cc1)c1cc(-c2cncnc2)ccc1F [Example 59, 2-Fluoro-5-(pyrimidin-5-yl)-N-(4-(trifluoromethoxy)phenyl)benzamide] | 20 |  |  | 93 |  |
| Nc1ncc(-c2cncc(C(=O)Nc3ccc(OC(F)(F)F)cc3)c2)cn1 [Example 61, 5-(2-Aminopyrimidin-5-yl)-N-(4-(trifluoromethoxy)phenyl)nicotinamide] | 3.5 |  |  | 31.5 |  |
| O=C(Nc1ccc(OC(F)(F)F)cc1)c1cncc(-c2cnn(CCO)c2)c1 [Example 64, 5-(1-(2-Hydroxyethyl)-1H-pyrazol-4-yl)-N-(4-(trifluoromethoxy)phenyl)nicotinamide] | 114 |  |  | 200 |  |
| CC(C)(O)c1ncc(C(=O)Nc2ccc(OC(F)(F)F)cc2)cc1-c1cncnc1 [Example 66, 6-(2-Hydroxypropan-2-yl)-5-(pyrimidin-5-yl)-N-(4-(trifluoromethoxy)phenyl)nicotinamide] |  |  | 722 |  |  |
| O=C(Nc1ccc(OC(F)(F)F)cc1)c1cccc(-c2cncnc2)n1 [Example 73, 6-(Pyrimidin-5-yl)-N-(4-(trifluoromethoxy)phenyl)picolinamide] | 684 | 1870 |  | 540 |  |
| O=C(Nc1ccc(OC(F)(F)F)cc1)c1cncc(-c2cccnc2)c1 [Example 74, N-(4-(Trifluoromethoxy)phenyl)-[3,3′-bipyridine]-5-carboxamide] | 8.7 | 30 |  |  | Mean brain (drug concentration in brain) [4]: 8509 pmol/g; Kp at 5 min [4]: 3.29; concentration at 5 min [4]: 2580 nM |
| O=C(Nc1ccc(OC(F)(F)F)cc1)c1cnc(Cl)c(-c2cncc(F)c2)c1 [Example 77, 2-Chloro-5′-fluoro-N-(4-(trifluoromethoxy)phenyl)-[3,3′-bipyridine]-5-carboxamide] |  | 13 |  | 4.9 |  |
| O=C(Nc1ccc(OC(F)(F)F)cc1)c1cnc(Cl)c(-c2cccnc2)c1 [Example 79, 2-Chloro-N-(4-(trifluoromethoxy)phenyl)-[3,3′-bipyridine]-5-carboxamide] |  | 6 |  | 10 |  |
| O=C(Nc1ccc(OC(F)(F)F)cc1)c1cnc(Cl)c(-c2ccn[nH]2)c1 [Example 80, 6-Chloro-5-(1H-pyrazol-5-yl)-N-(4-(trifluoromethoxy)phenyl)nicotinamide] |  |  |  | 55 |  |
